Converted amounts (≈) assume the structure as drawn. Like-named read-outs stand apart in the source and are kept apart here. Where no end group is shown, it is not given here.
What was measured:
C. neoformans = assay: microbe, parasite or virus in culture; type: cell-based, Cryptococcus neoformans (ATCC 32045)
Text: (§1) These standard strains of Escherichia coli (E. coli, ATCC 8739), Staphylococcus aureus (S. aureus, ATCC 6538), Pseudomonas aeruginosa (P. aeruginosa, ATCC 27853), Acinetobacter baumannii (A. baumannii, ATCC 1968), Candida albicans (ATCC 10231), and the clinical strain of Methicillin-resistant Staphylococcus aureus (MRSA, MRSA-Z) were obtained from Kunming Medical University. The standard strain of C. neoformans (ATCC 32045) was purchased from Shanghai Yingxin Laboratory Co., Ltd. (CAS NO. YXJ50058). Different strains of E. coli, S. aureus, MRSA, P. aeruginosa, and A. baumannii were cultured with shaking at 37 °C in Luria–Bertani (LB) medium. C. neoformans was cultured at 35 °C in Sabouraud Dextrose Agar (SDA) medium according to the manufacturer’s instructions.
(§2) According to Clinical and Laboratory Standards Institute (CLSI) protocols, the minimum inhibitory concentration (MIC) is the minimum drug concentration at which antibiotics inhibit the growth and reproduction of strains. The different strains were grown in their corresponding media at 35 °C or 37 °C until they entered the exponential growth phase. Fluconazole and amphotericin B were used as positive controls, and sterile 0.9% NaCl was used as a negative control. The peptides were diluted to various concentrations in sterile saline. According to 1 OD = 1 × 10^9 CFU/mL, the above bacterial solution was diluted to 2 × 10^5 CFU/mL with the corresponding medium. In advance, 100 μL of normal saline was added to a sterile 96-well plate, and 200 μL of the sample to be tested was added to the first well. The sample to be tested was subjected to double gradient dilution, and then 100 μL of bacterial solution with a concentration of 2 × 10^5 was added to each well. It was cultured at 35 °C or 37 °C for different times. The light absorption value of the bacterial solution at 600 nm was detected by a microplate reader (Epoch Etock, Biotek, Winooski, VT, USA), and the average concentration of the samples in the pores and adjacent pores that could not detect microbial growth was used as the MIC value.

C. albicans = assay: microbe, parasite or virus in culture; type: cell-based, Candida albicans (ATCC 10231)
Text: as §1, §2

MRSA = assay: microbe, parasite or virus in culture; type: cell-based
Text: as §1, §2

A. baumannii = assay: microbe, parasite or virus in culture; type: cell-based, Acinetobacter baumannii (ATCC 1968)
Text: as §1, §2

E. coli = assay: microbe, parasite or virus in culture; type: cell-based, Escherichia coli (ATCC 8739)
Text: as §1, §2

S. aureus = assay: microbe, parasite or virus in culture; type: cell-based, Staphylococcus aureus (ATCC 6538)
Text: as §1, §2

P. aeruginosa = assay: microbe, parasite or virus in culture; type: cell-based, Pseudomonas aeruginosa (ATCC 27853)
Text: as §1, §2

C. neoformans ATCC 32045 = assay: Fungal-killing kinetics; type: cell-based, Cryptococcus neoformans; conditions: positive control; concentration not stated in the sentence (1×, 5×, 10 × MIC tested)
Description: The single colony of C. neoformans ATCC 32045 was selected and cultured at 180 rpm and 37 °C, washed three times with normal saline, and then resuspended, and the fungal solution was diluted to 1 × 10^6 CFU/mL with SDB medium. The positive control was fluconazole, and the negative control was normal saline. […] The fungal liquid after adding the sample was quickly put into the 37 °C constant temperature incubator, and the shaking culture was carried out at 180 rpm. […] The plate was placed in a constant temperature incubator for inverted culture for 72 h at 37 °C, and then the single colony on the plate was counted.

[1] = Cryptococcus neoformans, ATCC32045, ATCC 32045, double gradient dilution, 2 × 10^5 CFU/mL, 35 °C, OD 600 nm, mean of three independent experiments
[2] = Candida albicans, ATCC10231, ATCC 10231, double gradient dilution, 2 × 10^5 CFU/mL, OD 600 nm, mean of three independent experiments

What does the source list for `C[C@@H]1[C@H](O)[C@@H](C)/C=C/C=C/C=C/C=C/C=C/C=C/C=C/[C@H](O[C@@H]2O[C@H](C)[C@@H](O)[C@H](N)[C@@H]2O)C[C@@H]2O[C@](O)(C[C@@H](O)C[C@@H](O)[C@H](O)CC[C@@H](O)C[C@@H](O)CC(=O)O[C@H]1C)C[C@H](O)[C@H]2C(=O)O` [Amphotericin B, reference compound]?
MIC (C. neoformans; [1]): 0.05 µM (≈ 0.0462 µg/mL); MIC (C. albicans; [2]): 0.05 µM (≈ 0.0462 µg/mL)

For FIKKMLGNFSNYVRRPGKR [blap-9], which MIC (MRSA) is on record?
Its MIC is 81.10 µM.

What about the MIC (C. neoformans) of the same compound?
Its MIC is 81.10 µM.

And the MIC (A. baumannii)?
The MIC was 81.10 µM.

And the MIC (E. coli)?
Its MIC is 81.10 µM.

And the MIC (S. aureus)?
Its MIC is 81.10 µM.

What about the MIC (C. albicans) of the same compound?
The MIC was 40.55 µM.

What about the MIC (P. aeruginosa) of the same compound?
Its MIC is 81.10 µM.

How did the MIC (MRSA) turn out when RWKERKKWQKRWKRKKG [blap-8] was run?
Its MIC is 156.30 µM.

What about the MIC (C. neoformans) of the same compound?
The MIC was 19.53 µM.

What about the MIC (E. coli) of the same compound?
The MIC was 312.50 µM.

And the MIC (S. aureus)?
The MIC was 156.3 µM.

What about the MIC (C. albicans) of the same compound?
Its MIC is 19.53 µM.

What about the MIC (P. aeruginosa) of the same compound?
Its MIC is 7.81 µM.

With `CC1(C)S[C@@H]2[C@H](NC(=O)[C@H](N)c3ccccc3)C(=O)N2[C@H]1C(=O)O` [Ampicillin, reference compound] as the compound, how does the MIC (MRSA; Staphylococcus aureus, clinical strain MRSA-Z, double gradient dilution, 2 × 10^5 CFU/mL, LB, 37 °C, OD 600 nm, mean of three independent experiments) read?
Its MIC is 126 µM (≈ 44.1 µg/mL).

What about the MIC (A. baumannii; Acinetobacter baumannii, ATCC1968, ATCC 1968, double gradient dilution, 2 × 10^5 CFU/mL, LB, 37 °C, OD 600 nm, mean of three independent experiments) of the same compound?
Its MIC is 31.6 µM (≈ 11 µg/mL).

And the MIC (E. coli; Escherichia coli, ATCC8739, ATCC 8739, double gradient dilution, 2 × 10^5 CFU/mL, LB, 37 °C, OD 600 nm, mean of three independent experiments)?
The MIC was 31.6 µM (≈ 11 µg/mL).

What about the MIC (S. aureus; Staphylococcus aureus, ATCC6538, ATCC 6538, double gradient dilution, 2 × 10^5 CFU/mL, LB, 37 °C, OD 600 nm, mean of three independent experiments) of the same compound?
The MIC was 63.1 µM (≈ 22.1 µg/mL).

And the MIC (P. aeruginosa; Pseudomonas aeruginosa, ATCC27853, ATCC 27853, double gradient dilution, 2 × 10^5 CFU/mL, LB, 37 °C, OD 600 nm, mean of three independent experiments)?
The MIC was 31.6 µM (≈ 11 µg/mL).

`OC(Cn1cncn1)(Cn1cncn1)c1ccc(F)cc1F` [Fluconazole, reference compound] was tested. Which “time required for fungicidal rate to reach more than 90%” value (C. neoformans ATCC 32045) did it give?
Its value is 360 min.

And the MIC (C. neoformans; [1])?
Its MIC is 6.36 µM (≈ 1.95 µg/mL).

And the MIC (C. albicans; [2])?
The MIC was 0.61 µM (≈ 0.187 µg/mL).

Which MIC (MRSA) does the source give for RWNTSRWLRL [blap-10] here?
Its MIC is 19.54 µM.

What about the MIC (C. neoformans) of the same compound?
The MIC was 312.5 µM.

What about the MIC (C. albicans) of the same compound?
Its MIC is 156.30 µM.

What about the MIC (P. aeruginosa) of the same compound?
The MIC was 312.50 µM.

For KRALSLPKMREDRLLYRGRA [blap-7], which MIC (C. neoformans) is on record?
Its MIC is 312.50 µM.

And the MIC (C. albicans)?
Its MIC is 156.30 µM.
